Counter-ions that a name gives are not always drawn. Like-named read-outs stand apart in the source and are kept apart here.
How the values were obtained:
CaOV-3 cells = assay: Viability of CaOV-3 ovarian cancer cells (MTT assay); format: cell-based, human; conditions: for inhibition at 100 µM / IC50: Homo sapiens, Caov-3, 72 hours; for inhibition at 100 µM: read-out: Decrease in cell number (maximal decrease = 100%), CaOV-3
Method: (§1) To quantify cell death, around the time when significant and characteristic morphological changes took place, cells were pulse-labeled for 10 minutes with [^3H]thymidine to measure DNA activity as described elsewhere [Tomono, M. and Kiss, Z. (1995), “Ethanol enhances the stimulatory effects of insulin and insulin-like growth factor-I on DNA synthesis in NIH 3T3 fibroblasts,” Biochem. Biophys. Res. Commun. 208, 63-67]. Also, cells were collected as suspensions using trypsin, an established method in cell biology, followed by re-plating of cells in fresh tissue culture medium. If no viable cells were obtained after one week in culture, it meant that the cells at the time of re-plating were dead. Survival values obtained with untreated cells were considered 100%. For the determination of relative number of viable cells after treatments, in most cases the MTT assay was used. This calorimetric assay is based on the ability of living cells, but not dead cells, to reduce 3-(4,5-dimethyl thiazol-2-yl)-2,5-diphenyltetrazolium bromide [Carmichael, J, De Graff, W. G., Gazdar, A. F., Minna, J. D. and Mitchell, J. B. (1987), “Evaluation of tetrazolium-based semi-automated calorimetric assay: Assessment of chemosensitivity testing,” Cancer Res. 47, 936-942]. For this assay, cells were plated in 96-well plates, and the MTT assay was performed both in untreated and treated cell cultures. The MTT assay also was performed at the start of treatments to allow assessment of proliferation rates in the control and treated cell cultures.
(§2) NIH3T3, T47D, A-431, HT-29, and MEL-28 cells were cultured as indicated earlier. CaOV-3 human ovarian cancer cells were cultured in DMEM containing 10% FBS. ZR-75-1 human estrogen receptor-positive breast cancer cells were maintained in RPMI 1640 medium supplemented with 10% FBS. HTB-157 human fetal fibroblasts, MEL-24 human malignant melanoma cells, Hep G2 human hepatoblastoma cells, and CaCO-2 human colon adenocarcinoma cells were maintained in Eagles's MEM containing 10% FBS. MB-231 human estrogen receptor-negative breast cancer cells were maintained in Leibovitz's L-15 medium supplemented with 10% FBS. Cells were seeded into 96-well plates and treated at ˜70-90% confluency. Two hours prior to treatments the medium was changed for fresh 10% serum medium, and then the cells were incubated for 10 days in the absence (□) or presence of 50 μM CCDTHT ? or 100 μM CCDTHT (▪). The medium was changed and the cells were re-treated on days 3 and 6. The MTT assay was used to determine cell viability on day 10. The data, shown in FIG. 6, are the mean±std. dev. of 8 incubations in one experiment. (The experiment was repeated twice with similar results).
The MRC-5 cell line is derived from normal lung tissue of a […] fetus. MRC-5 cells were maintained and treated in Eagles Medium with Hanks' BSS containing 10% fetal bovine serum. The T47D cells were maintained and treated in RPMI 1640 medium supplemented with 0.2 IU bovine insulin and 10% fetal bovine serum. The CaOV-3 human ovarian cancer cells were cultured in Dulbecco's modified Eagle's medium containing 10% fetal bovine serum. The cells were seeded in 96-well plates either at 10,000 cells per well or 30,000 cells per well to examine the antiproliferative and cytotoxic effects of various CC compounds, respectively. The cells were incubated for 24 hours, then the medium was changed followed by the treatments of cultures 2 hours after the medium change. At this point, cell cultures seeded at 10,000 cells per well and 30,000 cells per well were 25-35% and 80-90% confluent, respectively. Incubations were continued for 72 hours followed by the MTT assay. The data, shown in TABLE 2, indicate the inhibitory concentrations of CC compounds (IC50) required for 50% decrease in the number of viable cells. These numbers are calculated from the mean of 4 incubations in one experiment (the experiment was repeated once with similar results). […]

MEL-24 cells = assay: Viability of MEL-24 melanoma cells (MTT assay); format: cell-based; conditions: Homo sapiens; for inhibition at 100 µM: 72 hours, read-out: Decrease in cell number (maximal decrease = 100%), MEL-24
Method: as §1, §2
NIH 3T3, MEL-28, MEL-24, CaOV-3, ZR-75-1, and T47D cells were cultured as described above. The OVCAR human ovarian cancer cells were cultured in DMEM containing 10% FBS. Cells were seeded into 96-well plates and used at ˜60-80% confluency. Two hours before treatments the medium was changed for fresh 10% serum medium, and then the cells were incubated for 72 hours in the absence or presence of 100 μM of each of CC compounds as listed in TABLE 3. The inhibitory effects of CC compounds on cell proliferation are expressed as percent decrease compared to untreated cell cultures (the greater the number, the greater the inhibitory effect of the CC compound). […] Also, for the treatment of ovarian cancer and breast cancer, CCDTHT seems to be the best choice (although in this experiment CCompounds21-26 were not tested).

T47D cells = assay: Viability of T47D breast cancer cells; format: cell-based, human; conditions: for inhibition at 100 µM / IC50: Homo sapiens, T47D; for inhibition at 100 µM: read-out: Decrease in cell number (maximal decrease = 100%), T47D
Method: as §1
About 40% confluent cultures of T47D cells, cultured in 12-well plates in RPMI 1640 medium supplemented with 0.2 IU bovine insulin and 10% FBS, were either untreated (FIG. 4A), or were treated with 100 μM CCDTHT (CCompound3) for 72 hours (FIG. 4B).
as §2, with “experiment.” for “experiment. (The experiment was repeated twice with similar results).”
The MRC-5 cell line is derived from normal lung tissue of a […] fetus. MRC-5 cells were maintained and treated in Eagles Medium with Hanks' BSS containing 10% fetal bovine serum. The T47D cells were maintained and treated in RPMI 1640 medium supplemented with 0.2 IU bovine insulin and 10% fetal bovine serum. The CaOV-3 human ovarian cancer cells were cultured in Dulbecco's modified Eagle's medium containing 10% fetal bovine serum. The cells were seeded in 96-well plates either at 10,000 cells per well or 30,000 cells per well to examine the antiproliferative and cytotoxic effects of various CC compounds, respectively. The cells were incubated for 24 hours, then the medium was changed followed by the treatments of cultures 2 hours after the medium change. At this point, cell cultures seeded at 10,000 cells per well and 30,000 cells per well were 25-35% and 80-90% confluent, respectively.

Row | SMILES | inhibition at 100 µM (CaOV-3 cells) [%] | inhibition at 100 µM (MEL-24 cells) [%] | inhibition at 100 µM (T47D cells; 100 μM, 72 hours) [%] | further results
1 | CC[NH+](CC)CCCOCc1ccc2sc3ccccc3c(=O)c2c1 [CCcompound12, 2-{[3-(Diethylamino)propoxy]meth-yl}-9H-thioxanthen-9-one hydrochloride] | 80 | 73 | 48 | –
2 | C[N+](C)(CCO)Cc1ccc2sc3ccccc3c(=O)c2c1 [CCcompound13, 2-Hydroxy-N,N-dimethyl-N-[(9-oxo-9H-thioxanthen-2-yl)methyl]-ethanaminium bromide] | 53 | 12 | 47 | –
3 | C[N+](C)(CCCO)Cc1ccc2sc3ccccc3c(=O)c2c1 [CCcompound15, 3-Hydroxy-N,N-dimethyl-N-[(9-oxo-9H-thioxanthen-2-yl)methyl]propane-1-aminium bromide] | 28 | 0 | 35 | –
4 | CC[N+](CC)(CCO)Cc1ccc2sc3ccccc3c(=O)c2c1 [CCcompound14, 2-Hydroxy-N,N-Diethyl-N-[(9-oxo-9H-thioxanthen-2-yl)methyl]-ethanaminium bromide] | 69 | 21 | 58 | –
5 | CC[N+](CC)(CCCO)Cc1ccc2sc3ccccc3c(=O)c2c1 [CCcompound16, 3-Hydroxy-N,N-diethyl-N-[(9-oxo-9H-thioxanthen-2-yl)methyl]-propane-1-aminium bromide] | 12 | 0 | 48 | –
6 | CC[N+](C)(CC)CCOCc1ccc2sc3ccccc3c(=O)c2c1.[I-] [CCDTHT, N,N-diethyl-N-methyl-2-[(9-oxo-9H-thioxanthen-2-yl)methoxy]-ethanaminium iodide] | 84 | 15 | 61 | sensitivity to the inhibitory actions, CaOV-3 (CaOV-3 cells; 50 and 100 μM, 10 days, MTT): very sensitive; IC50 (CaOV-3 cells; 10,000 cells per well (25-35% confluent), MTT, read-out: IC50 values, Antiproliferative, CaOV-3): 38 µM; IC50 (CaOV-3 cells; 30,000 cells per well (80-90% confluent), MTT, read-out: IC50 values, Cytotoxic, CaOV-3): 39 µM; cytotoxicity at 100 µM (MEL-24 cells; 240 h, 10 days, MTT, read-out: reduction in the number of viable cells, MEL-24): ≤ 50%; DNA synthesis after re-seeding treated T47D cells (T47D cells; 100 μM 72 hours, re-seeded, 96 hours later): no DNA synthesis could be detected; morphology / cell death, T47D (T47D cells; 100 μM, 72 hours, 12-well plates): practically all cells rounded up; sensitivity to the inhibitory actions, T47D (T47D cells; 50 and 100 μM, 10 days, MTT): very sensitive; IC50 (T47D cells; 10,000 cells per well (25-35% confluent), 72 hours, MTT, read-out: IC50 values, Antiproliferative, T47D): 47 µM; IC50 (T47D cells; 30,000 cells per well (80-90% confluent), 72 hours, MTT, read-out: IC50 values, Cytotoxic, T47D): 66 µM
7 | CC[N+](C)(C)CCCOCc1ccc2sc3ccccc3c(=O)c2c1 [CCcompound11, N,N-Dimethyl-N-ethyl-3-[(9-oxo-9H-thioxanthen-2-yl)methoxy]-propane-1-aminium iodide] | 66 | 20 | 59 | –
8 | CC[N+](C)(CC)CCCOCc1ccc2sc3ccccc3c(=O)c2c1 [CCcompound10, N,N-Diethyl-N-methyl-3-[(9-oxo-9H-thioxanthen-2-yl)methoxy]-propane-1-aminium iodide] | 45 | 15 | 51 | –
9 | CC[N+](CC)(CC)CCCOCc1ccc2sc3ccccc3c(=O)c2c1 [CCcompound9, N,N,N-Triethyl-3-[(9-oxo-9H-thioxanthen-2-yl)methoxy]-propane-1-aminium iodide] | 45 | 4 | 52 | –

Source: patent US7943606B2, “Compositions and methods to control abnormal cell growth” (CanCure Laboratories, LLC, priority 2005, dated 2011)
